pIC50: −log10 of the molar value.
system: human plasma; test: Measurement of intrinsic coagulation time (APTT) in vitro; assay type: biochemical; conditions: not given
Description: Activated partial thromboplastin time (APTT) is measured in the presence of the test compounds diluted at various concentrations. A test compound diluted with DMSO at various concentrations is mixed with human plasma and APTT reagent. The mixture is incubated at 37° C. for 2 minutes; calcium chloride (25 mM) is added to the mixture; and the coagulation time is thereafter measured. It should be noted that the anticoagulant activity of the test compound is described in terms of the concentration required to double the coagulation time for the case where no test compound is added.

Structure (SMILES)	Concentration required to double coagulation time [µM]
COCCOC(=O)C12CN(S(=O)(=O)c3ccc4cc(Cl)ccc4c3)CC(=O)N1CC1(CCN(c3ccncc3)CC1)O2 (single isomer, unassigned; (-)) [Example 42, (−)-1,4-Diaza-4-(6-chloronaphthalen-2-ylsulfonyl)-6-(2-methoxyethoxycarbonyl)-7-oxa-1′-(4-pyridyl)spiro[bicyclo[4.3.0]nonane-8,4′-piperidin]-2-one]	0.20
COCC12CN(S(=O)(=O)c3ccc4ccccc4c3)CC(=O)N1CC1(CCN(c3ccncc3)CC1)O2 (stereo not shown) [Example 6, 1,4-Diaza-6-(methoxymethyl)-4-(2-naphthalenesulfonyl)-7-oxa-1′-(4-pyridyl)spiro[bicyclo[4.3.0]nonane-8,4′-piperidin]-2-one]	0.99
O=C1CN(S(=O)(=O)c2ccc3cc(Cl)ccc3c2)CC2OC3(CCN(c4ccncc4)CC3)CN12 (stereo not shown) [Example 9, 1,4-Diaza-4-(6-chloronaphthalen-2-ylsulfonyl)-7-oxa-1′-(4-pyridyl)spiro[bicyclo[4.3.0]nonane-8,4′-piperidin]-2-one]	0.29
COCC12CN(S(=O)(=O)c3ccc4cc(Cl)ccc4c3)CC(=O)N1CC1(CCN(c3cc[n+](C)cc3)CC1)O2.Cc1ccc(S(=O)(=O)[O-])cc1 (stereo not shown) [Example 23, 4-[1,4-Diaza-4-(6-chloronaphthalen-2-ylsulfonyl)-6-(methoxymethyl)-7-oxa-2-oxospiro[bicyclo[4.3.0]nonane-8,4′-piperidin-1′-yl]]-1-methylpyridinium p-Toluenesulfonate]	0.62
CC(C)OC(=O)C12CN(S(=O)(=O)c3ccc4cc(Cl)ccc4c3)CC(=O)N1CC1(CCN(c3ccncc3)CC1)O2 (stereo not shown) [Example 29, 1,4-Diaza-4-(6-chloronaphthalen-2-ylsulfonyl)-6-(isopropoxycarbonyl)-7-oxa-1′-(4-pyridyl)spiro[bicyclo[4.3.0]nonane-8,4′-piperidin]-2-one]	0.90
NCC12CN(S(=O)(=O)c3ccc4cc(Cl)ccc4c3)CC(=O)N1CC1(CCN(c3ccncc3)CC1)O2 (stereo not shown) [Example 58, 6-(Aminomethyl)-1,4-diaza-4-(6-chloronaphthalen-2-ylsulfonyl)-7-oxa-1′-(4-pyridyl)spiro[bicyclo[4.3.0]nonane-8,4′-piperidin]-2-one]	0.18
CC12CN(S(=O)(=O)c3ccc4cc(Cl)ccc4c3)CC(=O)N1CC1(CCN(c3ccncc3)CC1)O2 (stereo not shown) [Example 69, 1,4-Diaza-4-(6-chloronaphthalen-2-ylsulfonyl)-6-methyl-7-oxa-1′-(4-pyridyl)spiro[bicyclo[4.3.0]nonane-8,4′-piperidin]-2-one]	0.36
O=C1CN(S(=O)(=O)c2cc3ccc(Cl)cc3s2)CC2NC3(CCN(c4ccncc4)CC3)CN12 (stereo not shown) [Example 275, 1,4,7-Triaza-4-(6-chlorobenzo[b]thiophen-2-ylsulfonyl)-1′-(4-pyridyl)spiro[bicyclo[4.3.0]nonane-8,4′-piperidin]-2-one]	0.17
COCC12CN(S(=O)(=O)C3=Cc4ccc(Cl)cc4OC3)CC(=O)N1CC1(CCN(c3ccncc3)CC1)O2 (stereo not shown) [Example 388, 1,4-Diaza-4-(7-chloro-2H-benzopyran-3-sulfonyl)-6-(methoxymethyl)-7-oxa-1′-(4-pyridyl)spiro[bicyclo[4.3.0]nonane-8,4′-piperidin]-2-one]	0.22
COCC12CN(S(=O)(=O)c3cc4ccc(Cl)cc4s3)CC(=O)N1CC1(CCN(c3ccncc3)CC1)O2 (stereo not shown) [Example 399, 1,4-Diaza-4-(6-chlorobenzo[b]thiophen-2-ylsulfonyl)-6-(methoxymethyl)-7-oxa-1′-(4-pyridyl)spiro[bicyclo[4.3.0]nonane-8,4′-piperidin]-2-one]	0.18
COCC12CN(S(=O)(=O)c3cc4ccc(Cl)cc4s3)CC(=O)N1CC1(CCN(c3ccncc3)CC1)N2 (stereo not shown) [Example 461, 1,4,7-Triaza-4-(6-chlorobenzo[b]thiophen-2-ylsulfonyl)-6-(methoxymethyl)-1′-(4-pyridyl)spiro[bicyclo[4.3.0]nonane-8,4′-piperidin]-2-one]	0.16
COCC12CN(S(=O)(=O)c3cc4cc(Cl)ccc4o3)CC(=O)N1CC1(CCN(c3ccncc3)CC1)N2 (stereo not shown) [Example 471, 1,4,7-Triaza-4-(5-chlorobenzo[b]furan-2-ylsulfonyl)-6-(methoxymethyl)-1′-(4-pyridyl)spiro[bicyclo[4.3.0]nonane-8,4′-piperidin]-2-one]	0.27
COCC12CN(S(=O)(=O)c3cc4cc(Cl)ccc4o3)CC(=O)N1CC1(CCN(c3ccncc3)CC1)N2C (stereo not shown) [Example 533, 1,4,7-Triaza-4-(5-chlorobenzo[b]furan-2-ylsulfonyl)-6-(methoxymethyl)-7-methyl-1′-(4-pyridyl)spiro[bicyclo[4.3.0]nonane-8,4′-piperidin]-2-one]	0.35
O=C1CN(S(=O)(=O)C=Cc2ccc(Cl)s2)CC2OC3(CCN(c4ccncc4)CC3)CN12 (stereo not shown) [Example 600, 1,4-Diaza-4-[2-(5-chlorothiophen-2-yl)ethenesulfonyl]-7-oxa-1′-(4-pyridyl)spiro[bicyclo[4.3.0]nonane-8,4′-piperidin]-2-one]	0.22
COCC12CN(S(=O)(=O)C=Cc3ccc(Cl)s3)CC(=O)N1CC1(CCN(c3ccncc3)CC1)N2C (stereo not shown) [Example 740, 1,4,7-Triaza-4-[2-(5-chlorothiophen-2-yl)ethenesulfonyl]-6-(methoxymethyl)-7-methyl-1′-(4-pyridyl)spiro[bicyclo[4.3.0]nonane-8,4′-piperidin]-2-one]	0.18

biological target: T1, human FXa (Homo sapiens, UniProt P00742); test: Measurement of human FXa inhibitory action (chromogenic substrate S-2222); assay type: biochemical; conditions: human FXa 0.019 U/ml, S-2222 0.4 mM, 37° C., pH 7.5
T1 construct: purchased Enzyme Research Laboratories, Inc
T1 sequence (P00742 235-488 limits assumed): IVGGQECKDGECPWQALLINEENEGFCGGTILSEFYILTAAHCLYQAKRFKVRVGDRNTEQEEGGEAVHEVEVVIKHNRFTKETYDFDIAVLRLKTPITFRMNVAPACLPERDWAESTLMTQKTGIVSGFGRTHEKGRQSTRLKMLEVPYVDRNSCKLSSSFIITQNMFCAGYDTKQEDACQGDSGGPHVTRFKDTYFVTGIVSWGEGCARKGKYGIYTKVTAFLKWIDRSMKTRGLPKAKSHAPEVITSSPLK
T1 sequence (P00742 41-179 partner limits assumed): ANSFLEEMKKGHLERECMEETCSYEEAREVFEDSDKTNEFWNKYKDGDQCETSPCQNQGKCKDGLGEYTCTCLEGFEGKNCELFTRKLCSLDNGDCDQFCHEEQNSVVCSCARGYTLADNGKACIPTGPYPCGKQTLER
Description: In vitro FXa inhibitory activity is measured in accordance with the method of Kettner et al. (Journal of Biological Chemistry, vol. 265, pages 18289 to 18297, 1990). To be more specific, human FXa (product of Enzyme Research Laboratories, Inc., 0.019 U/ml) is mixed with a test compound diluted with dimethylsulfoxide (DMSO) at various concentrations and a synthetic substrate S-2222 (Chromogenix AB, 0.4 mM). The mixtures are incubated at 37° C. in Tris-hydrochloric acid buffer (pH 7.5) while the absorbance at 405 nm is measured continuously. To calculate the FXa inhibitory activity of the test compound, the initial reaction velocity is compared with the value for a control containing no test compound. It should be noted that the FXa inhibitory activity of the test compound is generally indicated as IC50.

Structure (SMILES)	pIC50
COCC12CN(S(=O)(=O)c3ccc4cc(Cl)ccc4c3)CC(=O)N1CC1(CCN(c3ccncc3)CC1)O2 (stereo not shown) [Example 1, 1,4-Diaza-4-(6-chloronaphthalen-2-ylsulfonyl)-6-(methoxymethyl)-7-oxa-1′-(4-pyridyl)spiro[bicyclo[4.3.0]nonane-8,4′-piperidin]-2-one]	8.49
O=C1CN(S(=O)(=O)c2ccc3cc(Cl)ccc3c2)CC2OC3(CCN(c4ccncn4)CC3)CN12 (stereo not shown) [Example 10, 1,4-Diaza-4-(6-chloronaphthalen-2-ylsulfonyl)-7-oxa-1′-(4-pyrimidinyl)spiro[bicyclo[4.3.0]nonane-8,4′-piperidin]-2-one]	8.27
CCOC(=O)C12CN(S(=O)(=O)c3ccc4cc(Cl)ccc4c3)CC(=O)N1CC1(CCN(c3ccncc3)CC1)O2 (stereo not shown) [Example 25, 1,4-Diaza-4-(6-chloronaphthalen-2-ylsulfonyl)-6-(ethoxycarbonyl)-7-oxa-1′-(4-pyridyl)spiro[bicyclo[4.3.0]nonane-8,4′-piperidin]-2-one]	8.82
O=C1CN(S(=O)(=O)c2ccc3cc(Cl)ccc3c2)CC2(C(=O)O)OC3(CCN(c4ccncc4)CC3)CN12 (stereo not shown) [Example 50, Ammonium 1,4-Diaza-4-(6-chloronaphthalen-2-ylsulfonyl)-7-oxa-2-oxo-1′-(4-pyridyl)spiro[bicyclo[4.3.0]nonane-8,4′-piperidine]-6-carboxylate]	8.72
CCOC(=O)NCC12CN(S(=O)(=O)c3ccc4cc(Cl)ccc4c3)CC(=O)N1CC1(CCN(c3ccncc3)CC1)O2 (stereo not shown) [Example 59, 1,4-Diaza-4-(6-chloronaphthalen-2-ylsulfonyl)-6-(ethoxycarbonylaminomethyl)-7-oxa-1′-(4-pyridyl)spiro[bicyclo[4.3.0]nonane-8,4′-piperidin]-2-one]	8.47
O=C1CN(S(=O)(=O)c2ccc3cc(Cl)ccc3c2)CC2(CN3CCOCC3)OC3(CCN(c4ccncc4)CC3)CN12 (stereo not shown) [Example 61, 1,4-Diaza-4-(6-chloronaphthalen-2-ylsulfonyl)-6-(morpholinomethyl)-7-oxa-1′-(4-pyridyl)spiro[bicyclo[4.3.0]nonane-8,4′-piperidin]-2-one]	8.55
O=C1CN(S(=O)(=O)c2cc3ccc(Cl)cc3s2)CC2OC3(CCN(c4ccncc4)CC3)CN12 (stereo not shown) [Example 213, 1,4-Diaza-4-(6-chlorobenzo[b]thiophen-2-ylsulfunyl)-7-oxa-1′-(4-pridyl)spiro[bicyclo[4.3.0]nonane-8,4′-piperidin]-2-one]	9.22
O=C1CN(S(=O)(=O)C=Cc2ccc(Cl)s2)CC2NC3(CCN(c4ccncc4)CC3)CN12 (stereo not shown) [Example 628, 1,4,7-Triaza-4-[2-(5-chlorothiophen-2-yl)ethenesulfonyl]-1′-(4-pyridyl)spiro[bicyclo[4.3.0]nonane-8,4′-piperidin]-2-one]	8.28
COCC12CN(S(=O)(=O)C=Cc3ccc(Cl)s3)CC(=O)N1CC1(CCN(c3ccncc3)CC1)O2 (stereo not shown) [Example 684, 1,4-Diaza-4-[2-(5-chlorothiophen-2-yl)ethenesulfonyl]-6-(methoxymethyl)-7-oxa-1′-(4-pyridyl)spiro[bicyclo[4.3.0]nonane-8,4′-piperidin]-2-one]	8.74
COCC12CN(S(=O)(=O)C=Cc3ccc(Cl)s3)CC(=O)N1CC1(CCN(c3ccncc3)CC1)N2 (stereo not shown) [Example 712, 1,4,7-Triaza-4-[2-(5-chlorothiophen-2-yl)ethenesulfonyl]-6-(methoxymethyl)-1′-(4-pyridyl)spiro[bicyclo[4.3.0]nonane-8,4′-piperidin]-2-one]	8.74

From US20040063716A1, “Cholesterol biosynthesis inhibitors containing as the active ingredient tricyclic spiro compounds” (priority 2000, published 2004)
